Reference: PubChem BioAssay (NCI)
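Grown in 96-well plates, cells were treated for 48 hours with each compound at five concentrations. Insufficient inhibition: endpoint recorded as highest concentration tested. The concentration for 50% growth inhibition is given as GI50. TGI is the concentration that stops growth completely.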

Legend:
Test in all cases: growth of human tumour cells (NCI), 48 h
[1] = test system: A498 renal
[2] = test system: A549 NSCLC
[3] = test system: CAKI-1 renal
[4] = test system: DU-145 prostate
[5] = test system: KM12 colon
[6] = test system: LOX IMVI melanoma
[7] = test system: NCI-H23 lung
[8] = test system: NCI/ADR-RES ovarian
[9] = test system: PC-3 prostate
[10] = test system: K-562 leukemia

SMILES	GI50 [1]	TGI [1]	GI50 [2]	TGI [2]	GI50 [3]	TGI [3]	GI50 [4]	TGI [4]	GI50 [5]	TGI [5]	GI50 [6]	TGI [6]	GI50 [7]	TGI [7]	GI50 [8]	TGI [8]	GI50 [9]	TGI [9]	TGI [10]	GI50 [10]
COc1ccc(/C=C\c2cc(OC)c(OC)c(OC)c2)cc1NC(=O)/C=C/c1ccc(OC)c(OC)c1	0.184 µM	> 100 µM	4.89 µM	> 100 µM	3.55 µM	> 100 µM	4.93 µM	> 100 µM	3.91 µM	> 100 µM	7.41 µM	> 100 µM	16.5 µM	> 100 µM	0.949 µM	> 100 µM	3.9 µM	> 100 µM		
O=C1NC(c2ccccc2)(c2ccccc2)C(=O)N1CCCCCCN1C(=O)NC(c2ccccc2)(c2ccccc2)C1=O		> 100 µM		> 100 µM		> 100 µM				> 100 µM		> 100 µM		91.5 µM					> 100 µM	
COC1CCCc2c(OC(C)=O)ccc(OC(C)=O)c21 (stereo unspecified)				> 100 µM		> 100 µM				> 100 µM		> 100 µM		> 100 µM					> 100 µM	
O=C(CCN1CCCC1)Nc1ccc2c(Nc3ccc(F)cc3)c3ccccc3nc2c1	1.03 µM	4.89 µM	0.424 µM	3.62 µM	1.26 µM	2.6 µM	0.513 µM	2.03 µM	1.48 µM	4.11 µM	0.606 µM	2.01 µM	1.08 µM	2.63 µM	2.11 µM	7.4 µM	1.34 µM	3.97 µM		
COc1ccccc1/C=C1\C(=O)N(C(=O)Cc2ccccc2)N=C1C				> 100 µM		> 100 µM				> 100 µM		> 100 µM		> 100 µM					> 100 µM	
CCOC(=O)c1ccc(N=Cc2ccc(N(CCC#N)S(=O)(=O)c3ccccc3)cc2C)cc1		> 100 µM		> 100 µM		> 100 µM				> 100 µM		> 100 µM		> 100 µM					> 100 µM	
COc1ccc2nc3cc(Cl)ccc3c(Sc3ccc(N)cc3)c2c1		76.3 µM		30.1 µM		29.6 µM				19.4 µM		20.9 µM		27.9 µM					13.8 µM	
CN(c1cccc(C(=O)O)c1)c1cc(O/N=[N+](\[O-])N(C)C)c([N+](=O)[O-])cc1[N+](=O)[O-]			> 100 µM	> 100 µM	> 100 µM	> 100 µM	> 100 µM	> 100 µM	> 100 µM	> 100 µM	47.6 µM	> 100 µM	> 100 µM	> 100 µM	> 100 µM	> 100 µM	> 100 µM	> 100 µM	> 100 µM	78.8 µM
O=C(n1c2ccccc2c2n[nH]c(=S)nc21)C(F)(F)F				> 100 µM		> 100 µM				> 100 µM		> 100 µM		> 100 µM					> 100 µM	
CCCCC[C@@H]1CCCC2NC(CCCCCO[Si](c3ccccc3)(c3ccccc3)C(C)(C)C)CCC21 (stereo partly specified)		31.9 µM		33.9 µM		29 µM				25.4 µM		28.1 µM		31.7 µM					20.9 µM	
CCN(Cc1ccc(Cl)c(Cl)c1)c1ccc2nc(N)nc(N)c2c1C	0.785 µM	3.63 µM			< 0.0237 µM	0.802 µM	0.0544 µM	2 µM	0.048 µM	1.67 µM			0.0284 µM	1.49 µM	0.0104 µM	1.63 µM	0.0284 µM	3.16 µM		
Cn1c(=O)nc2n(-c3ccc(Br)cc3)c3ccccc3nc-2c1=O		26.9 µM		15.1 µM		33 µM				36.8 µM				4.2 µM					24 µM	
CC(C)(C)c1cc(C2c3cc4c(cc3OC(O)(CO)C2C(=O)O)OCO4)cc(C(C)(C)C)c1O (stereo unspecified) (tested in a mixture with another compound)				48.1 µM		50.3 µM						29.1 µM		29.6 µM					29.6 µM	
N#CN1CC[C@@H]2CC3(CCC2C1)OCCO3 (stereo partly specified)		> 100 µM		> 100 µM		> 100 µM				> 100 µM				> 100 µM					> 100 µM	
COC(=O)NC1(NC(=O)OC)NC(=O)c2ccccc2N1		> 100 µM		> 100 µM		> 100 µM		> 100 µM		> 100 µM				> 100 µM		> 100 µM		> 100 µM	> 100 µM	
CCCC(=O)Oc1ccc(/C(=C(\C)c2ccc(Cl)cc2)c2ccc(OCCN(CC)CC)cc2)cc1			2.58 µM	6.91 µM	3.99 µM	16.3 µM	3.46 µM	12.4 µM	3.05 µM	10.7 µM	1.85 µM	3.4 µM	3.69 µM	15.6 µM	4.25 µM	16.5 µM	0.56 µM	14.1 µM	5.09 µM	2.08 µM
CC(C)(C)OC(=O)NCCCCCCCCCn1c2c(c3ccccc3c1=O)C(=O)c1ccccc1-2			> 100 µM	> 100 µM			> 100 µM	> 100 µM	> 100 µM	> 100 µM	76.3 µM	> 100 µM	37 µM	> 100 µM	43.5 µM	> 100 µM	> 100 µM	> 100 µM	> 100 µM	> 100 µM
O=C(c1ccccc1)c1nc2c(Cl)ccc(Cl)c2cc1C(Br)Br				13.4 µM		3.51 µM				2.55 µM		3.07 µM							1.77 µM	
CC(C)(C)C1=CC(=N/N=c2\scc(-c3ccccc3)n2Cc2ccccc2)C=C(C(C)(C)C)C1=O		> 100 µM		> 100 µM		> 100 µM						> 100 µM		> 100 µM					> 100 µM	
O=C(NCCCN1CCN(CCCNC(=O)c2cccc3ccccc23)CC1)c1cccc2ccccc12		> 100 µM		> 100 µM		> 100 µM				> 100 µM		> 100 µM		> 100 µM					> 100 µM	
O=C(Nc1cc(Cl)c(I)c(Cl)c1)C(F)(F)F		47.8 µM				56.5 µM		> 100 µM		85.4 µM				70.8 µM		> 100 µM		83.8 µM	81.8 µM	
O=c1[nH]c2nc3ccccc3c(=O)n2nc1Cc1ccccc1				> 100 µM		> 100 µM				> 100 µM		> 100 µM		> 100 µM					> 100 µM	
